Assay results published in US20250059139A1, “COMPOUNDS FOR TREATMENT OF CANCER” (THE JOHNS HOPKINS UNIVERSITY, priority 2021, published 2025).

Legend:
Water solubility = assay type: physicochemical
[1] = test system: LvCaP-3 human prostate cancer PDXs; test: In vivo growth of LvCaP-3 xenografts in castrate hosts; settings: daily oral 10 mg/kg
From the text: (§1) Prostate Cancer Models. The source, history, and characteristics of the human prostate cancer cell lines and PDXs used, as well as cell culture conditions for their in vitro maintenance and the in vivo protocol for xenograft growth in triple immune-deficient NSG (i.e. NOD.Cg-PrkdcScidIl2rgtmlWji/Szj), adult (>8 week old) male mice obtained from the Sidney Kimmel Comprehensive Cancer Center (SKCCC) Animal Core Facility are described previously (Isaacs 2013; Brennen et al. JCI Insight. 2021, 6(8):e146827; Zhu et al. Oncogene 2020, 39(45): 6935-6949). […] In vitro growth curves were determined as described (Isaacs 2013). In vivo growth response to oral daily TasQ (10 mg/kg/d) of TRAMP-C2 mouse prostate cancers was evaluated in C57BL/6J syngeneic wild type vs. NOX-2 vs. iNOS null male mice obtained from Jackson Laboratory (Bar Harbor, ME). Growth response to oral daily TasQ (10 mg/kg/d) of TRAMP-C2 and B6CaP mouse prostate cancers was also evaluated in S100A9 null C57BL′6J male mice obtained from Dmitry Gabrilovich (Wistar Institute). […] In vitro growth curves were determined as described (Isaacs 2013). Growth response to daily oral TasQ vs. ESATA-20 (both at 10 mg/kg/d) of Myc-CaP-CR mouse prostate cancer was evaluated in syngeneic FVB/NJ castrate male mice from Jackson Laboratory. […]

[2] = cited from earlier work
[3] = test system: TRAMP-C2 mouse prostate cancer; test: In vivo growth of TRAMP-C2 allografts in C57BL/6J wild type vs. NOX2-, iNOS-, S100A9-KO hosts; settings: daily oral 10 mg/kg/d over a 3-week period; wild type and KO hosts
From the text: as §1

Row | Compound | water solubility compared with TasQ (Water solubility) | inhibition of growth of LvCaP-3 xenografts at the end of study [1] | blood concentrations maintained ([2]; daily oral 10 mg/kg/d) [nM] | serum nadir ([2]; oral 5 mg/kg/d, at 24 hrs) [µM] | inhibition of tumor growth [3] [%]
1 | COc1cccc2c1c(O)c(C(=O)N(c1ccc(C(F)(F)F)cc1)C1CCCCC1)c(=O)n2C [ESATA-20] | less water soluble than TasQ |  |  |  | 
2 | COc1cccc2c1c(O)c(C(=O)N(C)c1ccc(C(F)(F)F)cc1)c(=O)n2C [TasQ, Tasquinimod] |  | ⅔ | > 1000 | 1.08 ± 0.21 | > 70
